Source: patent US9192589B2, “Chalcones as enhancer of antimicrobial agents” (priority 2009, dated 2015)
Read-outs that look alike come from different tables or passages of the source.

Key:
[1] = tested on: Staphylococcus aureus SA-K2191 (MsrA overexpressing); assay: Checkerboard MIC of erythromycin alone and in combination with chalcone; type: cell-based; settings: for MIC: Staphylococcus aureus
Actinomyces viscosus = assay: MIC of antibacterial agents alone and in combination with CK-4; type: cell-based; settings: A. viscosus
Source text: (§1) The checkerboard method is the most frequently used method to access the antimicrobial combinations in vitro. The term “checkerboard” refers to the pattern (of tubes or microtiter plate wells) formed by multiple dilutions of two drugs being tested (Eliopoulos G M, Moellering R C. Antimicrobial Combinations, in: Antibiotics in Laboratory Medicine: USA: Williams & Wilkins). In the present study the checkerboard consisted of columns in which each tube (or well) contains the same amount of the standard drug (antibacterial/antifungal/anti-TB/antiviral) being diluted along the x-axis and rows in which each tube (or well) contains the same amount of the potentiator being diluted on the y-axis. As a result each square in the checkerboard (which represents one tube/well or plate) contained a unique combination of the standard drug and potentiator. The concentration range of standard drug in the present study was 64 μg/ml to 0.03 μg/ml, whereas the potentiator was tested in the range of 500 μg/ml to 0.2 μg/ml. This checkerboard technique can be performed with liquid or semisolid (agar) media.
(§2) In the agar method the agar (Mueller Hinton agar, Middlebrook 7H10 agar) was autoclaved and allowed to cool to 55° C. to 50° C. The combination of the standard drug and the potentiator was added to the agar. Serial two fold dilutions of each of standard drug and the potentiator were prepared in appropriate solvents. In order to maintain the desired concentrations of both agar and drugs, and to rule out the effect of solvent, the volume of solvent (containing standard drug or potentiator) added to agar was kept small (i.e. ≦5% of the total volume). After the agar plates have been poured and allowed to dry, the bacteria to be tested were applied to the surface of agar with a replicating device designed to deliver a standard inoculum (approx 10^4 cfu/spot). The plates were incubated at 37° C. for 24 hrs (3 weeks in case of Mycobacterium tuberculosis).
(§3) The above-mentioned checkerboard was also performed with liquid media in a microtiter plate format. This method was used to study the combination of antibacterial/antifungal/antiviral drugs with potentiator.
(§4) Minimum Inhibitory Concentration (MIC) of triclosan alone and in combination with the above mentioned chalcone compound was performed against Streptococcus mutans, Actinomyces viscosus and Fusobacterium nucleatum, using method described in the study design.
(§5) Minimum Inhibitory Concentration (MIC) of magnolol alone and in combination with the above mentioned chalcone compound was performed against Streptococcus mutans, Actinomyces viscosus and Fusobacterium nucleatum, using method described in the study design.
(§6) Minimum Inhibitory Concentration (MIC) of honokiol alone and in combination with the above mentioned chalcone compound was performed against Streptococcus mutans, Actinomyces viscosus and Fusobacterium nucleatum, using method described in the study design.

Streptococcus mutans = assay: as above; type: cell-based; settings: S. mutans
Source text: as §1, §2, §3, §4, §5, §6

Fusobacterium nucleatum = assay: as above; type: cell-based; settings: F. nucleatum
Source text: as §1, §2, §3, §4, §5, §6

A. Viscosus biofilm = assay: Inhibition of single species biofilm formation (BEC50, crystal violet); type: cell-based, Actinomyces viscosus; set-up: unit not given here; settings: 24 hours; for BEC50 alone: agent alone
Experimental: Actinomyces viscosus (ATCC#43146) was grown in trypticase soy broth supplemented with 0.6% yeast extract (TSB-YE) at 37° C., static culture. For mixed species assays, the source of bacteria was a continuous culture chemostat inoculated with A. viscosus, Lactobacillus casei (ATCC #334), Streptococcus oxalis (ATCC #35037), Fusobacterium nucleatum (ATCC #10953), and Veilonella parvula (ATCC #17745). This mixed culture was maintained in a specialized complex medium in a continuous culture chemostat at 37° C.
To assess the bioenhancing ability of CK-4, inhibition of single species biofilm formation tests were conducted. Actives of interest were plated in the first column of a sterile 384-well culture plate and serial twofold dilutions were performed across the plate in 0.5× TSB. First generation cultures of A. Viscosus bacteria were grown overnight in TSB-YE. Cultures were diluted to an OD610˜0.2 in 0.5×TSB and plated in the wells containing serial dilutions of actives. Plates were incubated for 24 hours at 37° C. to allow growth and biofilm formation to occur.
Following incubation, supernatants were removed from the plate and remaining biofilms were stained with 0.03% Grain's crystal violet. Stained plates were read on a Perkin Elmer EnVision microplate reader for absorbance at 590 nm.

[2] = tested on: Streptococcus mutans, Actinomyces viscosus and Fusobacterium nucleatum; assay: Fold reduction in MIC over the three oral bacteria; type: cell-based; settings: in combination with CK-4; over S. mutans, A. viscosus and F. nucleatum
Source text: as §1, §2, §3, §4
Minimum Inhibitory Concentration (MIC) of magnolol alone and in combination with the above mentioned chalcone compound was performed against Streptococcus mutans, Actinomyces viscosus and Fusobacterium nucleatum, using method described in the study design. […]

[3] = tested on: Staphylococcus aureus SA-K2192 (TetK overexpressing); assay: Checkerboard MIC of tetracycline alone and in combination with chalcone; type: cell-based
[4] = tested on: Staphylococcus aureus ATCC 29213; assay: Systemic infection model of mice, ED50 of ciprofloxacin; type: in vivo, Swiss albino mice; settings: ATCC29213, iv, after seven days of observation
Experimental: Efficacy testing will be done using standard procedures. Primary efficacy evaluation may be done using the murine septicemia model (Yun et al. Journal of Antimicrob. Chemother., 2002, 46: 3071-3074). In this model a supra-lethal dose of bacteria is used to challenge the rodents. Treatment is initiated, varying either or both time(s) of treatment and dose of antibiotic. In these experiments both the antibiotic and the efflux pump inhibitor doses are varied.
The study was conducted to see the in vivo response of ciprofloxacin in combination with the above-mentioned efflux pump inhibitor. The Swiss albino mice were infected intravenously with Staphylococcus aureus ATCC 29213 (10^7 CFU/mouse). The infected mice were divided in groups and each group consisted of 6 mice. The treatment consisted of one dose immediately after the infection followed by the next dose after a gap of 6 hrs. The result was recorded as number of survivals each day.

[5] = tested on: Staphylococcus aureus 1199B (NorA overexpressing); assay: Checkerboard MIC of ciprofloxacin alone and in combination with chalcone; type: cell-based; settings: for MIC: Staphylococcus aureus
[6] = in combination with CK-4 at 50 μg/ml
[7] = in combination with CK-14 at 50 μg/ml
[8] = Actinomyces viscosus, agent alone, read-out: MIC
[9] = Streptococcus mutans, agent alone, read-out: MIC
[10] = Fusobacterium nucleatum, agent alone, read-out: MIC

Compound	MIC (Actinomyces viscosus; with CK-4 6.25 μg/ml)	MIC (Actinomyces viscosus; with CK-4 12.5 μg/ml)	MIC (Actinomyces viscosus; with CK-4 25 μg/ml)	MIC (Actinomyces viscosus; [8])	MIC (Streptococcus mutans; with CK-4 6.25 μg/ml)	MIC (Streptococcus mutans; with CK-4 12.5 μg/ml)	MIC (Streptococcus mutans; with CK-4 25 μg/ml)	MIC (Streptococcus mutans; [9])	MIC (Fusobacterium nucleatum; with CK-4 6.25 μg/ml)	MIC (Fusobacterium nucleatum; with CK-4 12.5 μg/ml)	MIC (Fusobacterium nucleatum; with CK-4 25 μg/ml)	MIC (Fusobacterium nucleatum; [10])	BEC50 alone (A. Viscosus biofilm)	BEC50 with CK-4 (A. Viscosus biofilm)	reduction in MIC in combination with chalcone compound [2]	further results
CC[C@H]1OC(=O)[C@H](C)[C@@H](O[C@H]2C[C@@](C)(OC)[C@@H](O)[C@H](C)O2)[C@H](C)[C@@H](O[C@@H]2O[C@H](C)C[C@H](N(C)C)[C@H]2O)[C@](C)(O)C[C@@H](C)C(=O)[C@H](C)[C@@H](O)[C@]1(C)O [erythromycin]	–	–	–	–	–	–	–	–	–	–	–	–	–	–	–	MIC ([1]; read-out: MIC (μg/ml) of erythromycin for Staphylococcus aureus SA-K2191, erythromycin alone): 64 µg/mL; MIC ([1]; read-out: MIC (μg/ml) of erythromycin for Staphylococcus aureus SA-K2191, in combination with CK-4 6.25 μg/ml): 64 µg/mL; MIC ([1]; read-out: MIC (μg/ml) of erythromycin for Staphylococcus aureus SA-K2191, in combination with CK-4 12.5 μg/ml): 32 µg/mL; MIC ([1]; read-out: MIC (μg/ml) of erythromycin for Staphylococcus aureus SA-K2191, in combination with CK-4 25.0 μg/ml): 16 µg/mL; MIC ([1]; read-out: MIC (μg/ml) of erythromycin for Staphylococcus aureus SA-K2191, in combination with CK-4 50.0 μg/ml): 8 µg/mL; reduction in MIC of erythromycin [1, 6]: Up to eight-fold; reduction in MIC of erythromycin [1, 7]: Up to four-fold
C=CCc1ccc(O)c(-c2ccc(O)c(CC=C)c2)c1 [Honokiol, honokiol]	2.0 µg/mL	1.0 µg/mL	0.5 µg/mL	4 µg/mL	2.0 µg/mL	1.0 µg/mL	0.5 µg/mL	4 µg/mL	1.0 µg/mL	1.0 µg/mL	0.5 µg/mL	2 µg/mL	5.21	2.60	Four to eight-fold	–
O=C([O-])CC(O)(CC(=O)[O-])C(=O)[O-].O=C([O-])CC(O)(CC(=O)[O-])C(=O)[O-].[Zn+2].[Zn+2].[Zn+2] [Zinc Citrate]	–	–	–	–	–	–	–	–	–	–	–	–	41.67	20.83	–	–
C=CCc1ccc(O)c(-c2cc(CC=C)ccc2O)c1 [Magnolol, magnolol]	1.0 µg/mL	0.5 µg/mL	0.25 µg/mL	4 µg/mL	2.0 µg/mL	1.0 µg/mL	0.5 µg/mL	4 µg/mL	1.0 µg/mL	1.0 µg/mL	0.5 µg/mL	2 µg/mL	3.91	1.95	Up to sixteen-fold	–
Catechin	–	–	–	–	–	–	–	–	–	–	–	–	26.04	26.04	–	–
CN(C)[C@@H]1C(O)=C(C(N)=O)C(=O)[C@@]2(O)C(O)=C3C(=O)c4c(O)cccc4[C@@](C)(O)[C@H]3C[C@@H]12 [tetracycline]	–	–	–	–	–	–	–	–	–	–	–	–	–	–	–	MIC ([3]; read-out: MIC (μg/ml) of tetracycline for Staphylococcus aureus SA-K2192, in combination with CK-4 6.25 μg/ml): 32 µg/mL; MIC ([3]; read-out: MIC (μg/ml) of tetracycline for Staphylococcus aureus SA-K2192, in combination with CK-4 12.5 μg/ml): 16 µg/mL; MIC ([3]; read-out: MIC (μg/ml) of tetracycline for Staphylococcus aureus SA-K2192, in combination with CK-4 25.0 μg/ml): 8 µg/mL; MIC ([3]; read-out: MIC (μg/ml) of tetracycline for Staphylococcus aureus SA-K2192, in combination with CK-4 50.0 μg/ml): 4 µg/mL; MIC ([3]; read-out: MIC (μg/ml) of tetracycline for Staphylococcus aureus SA-K2192, tetracycline alone): 32 µg/mL
CCCCc1ccc(O)c(-c2cc(CCCC)ccc2O)c1 [Butyl magnolol, 5,5′-dibutylbiphenyl-2,2′-diol]	4.0 µg/mL	2.0 µg/mL	1.0 µg/mL	4 µg/mL	4.0 µg/mL	2.0 µg/mL	1.0 µg/mL	4 µg/mL	2.0 µg/mL	2.0 µg/mL	1.0 µg/mL	2 µg/mL	0.65	0.24	Two to four-fold	–
CCCc1ccc(O)c(-c2ccc(O)c(CCC)c2)c1 [Propyl Honokiol, propyl honokiol]	–	–	–	–	–	–	–	–	–	–	–	–	0.49	0.65	–	–
O=C(O)c1cn(C2CC2)c2cc(N3CCNCC3)c(F)cc2c1=O [ciprofloxacin]	–	–	–	–	–	–	–	–	–	–	–	–	–	–	–	ED50 ([4]; ciprofloxacin alone, mice infected i.v. with S. aureus ATCC 29213, two doses 6 hrs apart): 9.2 mg/kg; ED50 ([4]; in combination with the CK-4, mice infected i.v. with S. aureus ATCC 29213, two doses 6 hrs apart): 5.86 mg/kg; MIC ([5]; read-out: MIC (μg/ml) of ciprofloxacin for Staphylococcus aureus 1199B, ciprofloxacin alone): 8 µg/mL; MIC ([5]; read-out: MIC (μg/ml) of ciprofloxacin for Staphylococcus aureus 1199B, in combination with CK-4 6.25 μg/ml): 4 µg/mL; MIC ([5]; read-out: MIC (μg/ml) of ciprofloxacin for Staphylococcus aureus 1199B, in combination with CK-4 12.5 μg/ml): 2 µg/mL; MIC ([5]; read-out: MIC (μg/ml) of ciprofloxacin for Staphylococcus aureus 1199B, in combination with CK-4 25.0 μg/ml): 1 µg/mL; MIC ([5]; read-out: MIC (μg/ml) of ciprofloxacin for Staphylococcus aureus 1199B, in combination with CK-4 50.0 μg/ml): 0.5 µg/mL; reduction in MIC of ciprofloxacin [5, 6]: Up to sixteen-fold; reduction in MIC of ciprofloxacin [5, 7]: Up to eight-fold
